This note sets out measurements from PMC10989073, “Antineoplastic effect of compounds C14 and P8 on TNBC and radioresistant TNBC cells by stabilizing the K-Ras4B^G13D/PDE6δ complex” (Frontiers in Oncology, 2024).

Where two headings read alike, the source gives them in different places.

Data set [1] has as its system MDA-MB-231 cells. Kind of data set: XTT cell viability assay and IC50 determination. The data set is classed as cell-based, human. The following applies: for IC50: XTT, ± SD; for concentration from which a significant cytotoxic effect is seen: compared to vehicle (DMSO). Here is the method:
In order to evaluate the effect of the C14 and P8 compounds over MCF-10A, MCF-7, MDA-MB-231, and […] cell lines, the IC50 of those molecules was determined. In brief, all the cell lines were seeded at a density of 15,000 cells per well in a 96-well microtiter plate (Corning) in a corresponding growth medium for 24 h. Then, cells were treated with increasing concentrations (from 0 to 200 μM) of the C14 and P8 compounds (Enamine, Kyiv, Ukraine). As a positive control, increased concentrations of cisplatin (from 0 to 200 µM) (Accord, Mexico City, Mexico) were employed. Due to that, dimethyl sulfoxide (DMSO) was used as a vehicle, and its increased concentrations were evaluated as the negative control. All the samples were maintained under growth conditions for 24 h and 48 h. At the end of each time, cell viability was determined using the XTT Cell Proliferation Kit II (Roche Applied Science, Mannheim, Germany) following the manufacturer’s protocol. The absorbance was measured in a spectrophotometer Synergy-HTX (BioTek) at a wavelength of 450–500 nm with a reference wavelength of 650 nm. Cell proliferation was expressed as a percentage of viability [(absorbance of treated cells/absorbance of untreated cells × 100)] ± SD.
For orientation: Formazan colour is commonly taken as a measure of viable cells.

Data set [2] relates to AKT and ERK phosphorylation in MDA-MB-231 cells. The data set can be described thus: Western blotting of pAKT and pERK. The data set is classed as cell-based, human. The following applies: MDA-MB-231, IC50-48 for 3 h, EGF 100 ng/ml 10 min, densitometry. The procedure:
(§1) To determine the effect of the C14 and P8 compounds over the protein effectors of K-Ras4B, AKT, and ERK, immunoblotting assays were conducted with specific antibodies. In brief, MCF-10A, MDA-MB-231, and MDA-MB-231RR cells were plated in 100-mm culture dishes until 80% of confluents. Cell adhesion was allowed for 24 h. […] After pre-treatment, cells were stimulated with 100 ng/ml EGF for 10 minutes to promote AKT and ERK activation. Later, the whole-cell extracts were obtained by the lysis of the cells (Cytoskeleton) in the presence of proteases and phosphatase inhibitors. Subsequently, the protein extracts were incubated at 4°C for 40 minutes to be clarified by centrifugation for 10 minutes at 14,000 rpm, at 4°C. The protein concentration of each extract was determined by using the Precision Red Advanced Protein Assay Reagent (Cytoskeleton) Then, approximately 25 μg of protein extract was electrophoresed in 10% sodium dodecyl sulfate–polyacrylamide gel electrophoresis (SDS-PAGE) and transferred to polyvinylidene fluoride (PVDF) membranes (Millipore, Billerica, MA, USA). Blots were probed using the following primary antibodies: Total ERK (Cell Signaling, Danvers, MA, USA), pERK (Cell Signaling), Total AKT (Cell Signaling), pAKT (Cell Signaling), GSK3β (Cell Signaling), and cyclin D1 (Abcam) at a 1:1,000 dilution. As a control, an anti-GAPDH antibody (GeneTex, Irvine, CA, USA) was employed at a 1:100,000 dilution and γ-Tubulin (Invitrogen) 1:5,000. Densitometric analysis of blots was performed using the software ImageJ version 1.45 (National Institutes of Health, Bethesda, […], USA).
Background: Immunoblotting shows a protein as a band on a membrane.

The subject of data set [3] is cyclin D1 and GSK3β in MCF-10A cells. The data set can be described thus: Western blotting of cyclin D1 and GSK3β. Conditions: 3 h, densitometry; for reduction in cyclin D1 protein: C14 and P8 at IC50-24 (Figure 7 legend); for reduction in GSK3β: IC50-24 (Figure 7 legend). The data set is classed as cell-based, human. The procedure:
as §1

For data set [4], the system named is MDA-MB-231 cells. The data set can be described thus: Cell cycle analysis (propidium iodide, flow cytometry). The data set is classed as cell-based, human. Conditions: MDA-MB-231, 3 h at IC50-48H; control 10.0%. Here is the method:
(§2) After 3-h incubation, cells were harvested, washed twice in ice-cold PBS, and fixed overnight in 70% ethanol at 4°C. Then, cells were washed in PBS, collected by centrifugation, and stained with staining buffer (PBS with 50 µg/ml propidium iodide and 100 µg/ml RNase A).
(In general: In flow cytometry, cells or beads pass a laser one at a time.)

A further data set has as its system MDA-MB-231RR cells. The description is as above. The data set is classed as cell-based, human. The following applies: 3 h at IC50-48H, control 35.6%. Here is the method: as §2
Data set [5] concerns MDA-MB-231RR xenograft tumors. Kind of data set: Orthotopic breast carcinoma xenograft, tumor growth. It is filed as in vivo, Nu/Nu nude mice. The following applies: female Nu/Nu mice, i.p. daily for 15 days, 30 mg/kg (methods: P8 10 mg/kg). Here is the method:
Female immune-deficient Nu/Nu nude mice at 6–8 weeks of age ([…], Mexico City, Mexico) were maintained in pathogen-free conditions with irradiated chow. The animals were subcutaneously injected in the left 4th mammary gland with 2 × 10^6 MDA-MB-231RR cells per tumor in 0.1 ml of sterile phosphate-buffered saline. When MDA-MB-231RR cells reached palpable tumors (≥100 mm^3), mice were divided randomly into four groups receiving vehicle (10% DMSO, 0.05% carboxy methyl cellulose, and 0.02% in PBS) (n = 5), C14 at 30 mg/kg (n = 5), P8 at 10 mg/kg (n = 5), or cisplatin at 6 mg/kg (n = 5) intraperitoneally injected daily for 15 days. Body weight and tumor volume were measured every third day. Tumor sizes were calculated using the formula [(length × width2)/2] in mm.

Another data set relates to MCF-10A cells. Kind of data set: Clonogenic assay. The data set is classed as cell-based, human. The following applies: 10 to 12 days, C14 and P8 at IC50-48, cisplatin 100 µM, doxorubicin 0.5 µM. Here is the method: The principal aim of a clonogenic assay is to evaluate the effect of chemotherapy agents or new drugs by the measurement of their ability to arrest tumor cell division and their ability to develop new colonies after their exposure to these new drugs ([56]). Therefore, the colony formation ability of the cell lines MCF-10A, MDA-MB-231, and MDA-MB-231RR was evaluated after their exposure to the C14 and P8 compounds. In brief, breast cancer cell lines were cultured in 6-well plates (Corning), seeding 300 cells per well, and incubated at 37°C in 5% CO2 for 24 h. Compounds C14 and P8 were added at the maximum evaluated concentration IC50-48. As controls, cells without treatment and cells treated in the presence of a vehicle (DMSO at 0.66%) were employed (Sigma-Aldrich). […] After 10 days of treatment, cells were fixed with 4% PFA and stained with 0.1% crystal violet in citric acid (Sigma-Aldrich) for 15 minutes. Subsequently, the dye present in the cells was extracted using isopropanol and read at 570 nm in a Synergy-HTX microplate reader (BioTek). Each test was performed in triplicate. Data were expressed as % colonies relative to the untreated control ([56]).

As usually defined, the IC50 is the concentration at which inhibition is half-maximal. As to `CN(CC(=O)NC1CCOc2ccccc21)Cc1cccc(Cl)c1` (stereo not shown) [C14, 2-[(3-chlorophenyl)-methyl-methyl-amino]-N-croman-4-yl-acetamide], the IC50 with MDA-MB-231 cells [1] (MDA-MB-231, 24 h, read-out: IC50-24) was 91.1 ± 3.9 µM. In addition, the IC50 in the data set on MDA-MB-231 cells [1] (MDA-MB-231, 48 h, read-out: IC50-48) was 60 ± 6.6 µM. Also, the “concentration from which a significant cytotoxic effect is seen” value in the data set with MDA-MB-231 cells [1] (MDA-MB-231, 48 h) was at least 10 µM. Besides, in data set [2], the “reduction in pAKT” value was “up to 60%” and the “reduction in pERK” value is “up to 70%”. Further, in data set [3], the “reduction in cyclin D1 protein” value amounted to 40% and the “reduction in GSK3β” value was 10%. In addition, the “percentage of cells in G2/M” value in the data set with MDA-MB-231 cells [4] is 6.4%. For the same compound, the “percentage of cells in S phase” value in the data set on MDA-MB-231RR cells is 20.7%. In addition, the “reduction in tumor size” value in data set [5] is recorded as 40.0%.

Turning to `N.N.[Cl][Pt][Cl]` [Cisplatin, cisplatin, reference compound], in the data set with MCF-10A cells, the “reduction of colony growth” value amounted to 95%.

Consider `O=C(CN1CCN(c2cccc(Cl)c2)CC1)N[C@@H]1CCOc2ccccc21` [P8, 2-[4-(3-chlorophenyl)piperazin-1-yl]-N-[(4R)-chroman-4-yl]acetamide], for which, in the data set with MDA-MB-231 cells [1] (Homo sapiens, MDA-MB-231, 24 h, read-out: IC50-24), the IC50 came to 140 ± 33.5 µM. In addition, the IC50 in the data set on MDA-MB-231 cells [1] (Homo sapiens, MDA-MB-231, 48 h, read-out: IC50-48) amounted to 63.2 ± 10.6 µM. Besides, the “concentration from which a significant cytotoxic effect is seen” value in the data set on MDA-MB-231 cells [1] (MDA-MB-231, 48 h) is at least 10 µM. Moreover, the “reduction of colony growth” value with MCF-10A cells was found to be 48%. For the same compound, in data set [2], the “reduction in pAKT” value is “up to 70%” and the “reduction in pERK” value was “up to 70%”. In data set [3], the “reduction in cyclin D1 protein” value is 40% and the “reduction in GSK3β” value is listed as 40%. The “percentage of cells in G2/M” value in the data set on MDA-MB-231 cells [4] is listed as 8.2%. Moreover, the “percentage of cells in S phase” value with MDA-MB-231RR cells turned out to be 26.4%. Also, the “reduction in tumor size” value in data set [5] was found to be 41.6%.
